The source of these data is patent publication US20020002171A1, “Materials and methods for killing nematodes and nematode eggs” (priority 2000, published 2002).

Structures are written as SMILES.

The subject of this experiment is Caenorhabditis elegans. Nature of the experiment: C. elegans L1 nematicidal dose response in 96-well plates, 5 day visual score (Example 2; same procedure for Example 7, Table 3). It is filed as in vivo. The arrangement: key to 5 Day Visual Score V1 / 5 Day Visual Score V2 / 5 Day Visual Score V3 / 5 Day Visual Score V4 / 5 Day Visual Score V6 / 5 Day Visual Score V5 / Initial HTS Run Visual Score / Follow-up HTS Run Visual Score: Dead: only stiff L1s (no movement); Dead (L4): worms are dead, but at a later larval stage; majority of worms are L1 (based on size) worms move when plate is tapped; majority of worms are L2 (based on size); majority of worms are L3 (based on size); majority of worms are L4 (based on size); AD: majority of worms are adult; #AD: 5 adult worms or less; B!: sterile (0-25 progeny); B: low broodsize (25-100 progeny); ˜B: moderate broodsize (100-250 progeny); <: reduced broodsize (250-500 progeny); OK: no effect (˜1000+ progeny). The note with it: for 5 Day Visual Score V4: dilution V4, day 5; for 5 Day Visual Score V5: dilution V5, day 5. The method in brief: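 L1 larvae, 20 per well in NGM with 1% E. coli HB101 and antibiotic/antimycotic, exposed to six 3-fold dilutions from 70 μM down to 0.3 μM (1.4% DMSO at top). Held at 20° C; viability scored visually under 100× dissecting microscope on day 5.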

Where [1] appears, read: dose response, dilution V1, day 5.
Setting [2] is: dose response, dilution V2, day 5.
The mark [3] stands for this setting: dose response, dilution V3, day 5.
[4] abbreviates: dose response, dilution V6, day 5.
Setting [5] is: 23.3 μM, C. elegans L1, scored day 5.
Where [6] appears, read: 70 μM, C. elegans L1, scored day 5.

As for `CCCCN(CC)c1nc(N2CCN(c3ncccn3)CC2)ns1` [compound 235], the “Follow-up HTS Run % Run” value came to 127%, the “Follow-up HTS Run Visual Score” value is recorded as “L2 - 1/2 Dead”, the “Follow-up HTS Run mOD” value came to 205 mOD and the “Initial HTS Run % Run” value was found to be 128%. Besides, the “Initial HTS Run Visual Score” value is recorded as “Dead (L3?)” and the “Initial HTS Run mOD” value is on record as 141 mOD. For the same compound, the “5 Day Visual Score V1” value under setting [1] was “Dead”. The “5 Day Visual Score V2” value under setting [2] is “#AD/˜B”. Under setting [3], the “5 Day Visual Score V3” value is “OK (no effect (˜1000+ progeny))”. Where the note is “dose response”, the “5 Day Visual Score V4” value is reported as “OK (no effect (˜1000+ progeny))” and the “5 Day Visual Score V5” value was “OK (no effect (˜1000+ progeny))”. Also, the “5 Day Visual Score V6” value under setting [4] is given as “OK (no effect (˜1000+ progeny))”.
As to `CCCCC(CC)CN(CC(CC)CCCC)c1nc(N2CCN(c3c(C)cccc3C)CC2)ns1` (stereo not shown) [compound 230], the “Follow-up HTS Run % Run” value was determined as 63%, the “Follow-up HTS Run Visual Score” value was found to be 3AD/B, the “Follow-up HTS Run mOD” value was 101 mOD and the “Initial HTS Run % Run” value is 121%. Moreover, the “Initial HTS Run Visual Score” value is “Dead/1AD/B!” and the “Initial HTS Run mOD” value turned out to be 133 mOD. Further, the “5 Day Visual Score V1” value under setting [1] is on record as “Dead”. Also, for the setting “dose response”, the “5 Day Visual Score V4” value was “< (reduced broodsize (250-500 progeny))” and the “5 Day Visual Score V5” value is given as “OK (no effect (˜1000+ progeny))”. Moreover, under setting [4], the “5 Day Visual Score V6” value is on record as “OK (no effect (˜1000+ progeny))”.
In the case of `CCN(c1nc(NCc2c(F)cccc2F)ns1)C1CCCCC1` [compound 297], the “Follow-up HTS Run % Run” value was 109%, the “Follow-up HTS Run Visual Score” value was “L4/AD/B”, the “Follow-up HTS Run mOD” value was 175 mOD and the “Initial HTS Run % Run” value is listed as 104%. For the same compound, the “Initial HTS Run Visual Score” value was “L4/AD/B!-Few Eggs” and the “Initial HTS Run mOD” value worked out at 114 mOD. The “5 Day Visual Score V2” value under setting [2] is on record as “B (low broodsize (25-100 progeny))”. In addition, the “5 Day Visual Score V3” value under setting [3] is “OK (no effect (˜1000+ progeny))”. Also, for the setting “dose response”, the “5 Day Visual Score V4” value is on record as “OK (no effect (˜1000+ progeny))” and the “5 Day Visual Score V5” value is reported as “OK (no effect (˜1000+ progeny))”. Under setting [4], the “5 Day Visual Score V6” value is reported as “OK (no effect (˜1000+ progeny))”.
For `CC1CC(C)CN(c2nc(NCc3ccccc3)ns2)C1` (stereo not shown) [compound 264], the “Follow-up HTS Run % Run” value turned out to be 110%, the “Follow-up HTS Run Visual Score” value is on record as “L4/AD/B”, the “Follow-up HTS Run mOD” value stood at 177 mOD and the “Initial HTS Run % Run” value was determined as 104%. In addition, the “Initial HTS Run Visual Score” value is “L4/AD/B” and the “Initial HTS Run mOD” value was determined as 114 mOD. For the same compound, the “5 Day Visual Score V1” value under setting [1] is on record as “L2”. Besides, the “5 Day Visual Score V3” value under setting [3] is reported as “< (reduced broodsize (250-500 progeny))”. For the same compound, for the setting “dose response”, the “5 Day Visual Score V4” value is on record as “OK (no effect (˜1000+ progeny))” and the “5 Day Visual Score V5” value was “OK (no effect (˜1000+ progeny))”. Also, the “5 Day Visual Score V6” value under setting [4] is “OK (no effect (˜1000+ progeny))”.
In the case of `CCCc1ccc(C(Nc2ccc(-c3ccccc3)cc2)C2CCCCC2=O)cc1` (stereo not shown) [AKC 132], the “5 Day Visual Score V6” value (0.3 μM, C. elegans L1, scored day 5) is given as “Dead”. Further, the “5 Day Visual Score V3” value (7.8 μM, C. elegans L1, scored day 5) is on record as “Dead”. For the same compound, under setting [5], the “5 Day Visual Score V2” value is listed as “Dead”. Besides, under setting [6], the “5 Day Visual Score V1” value is recorded as “Dead(L2)”.
Consider `CCC1CCCCN1c1cc(Oc2ccc3oc4ccccc4c3c2)ncn1` (stereo not shown) [AKC 340], for which, under setting [5], the “5 Day Visual Score V2” value is recorded as “L1”. Besides, under setting [6], the “5 Day Visual Score V1” value is on record as “L1”.
Take `CCCCCCCCCCNc1nsc(N(CCCC)Cc2ccccc2)n1` [compound 279]: the “Follow-up HTS Run % Run” value came to 131%, the “Follow-up HTS Run Visual Score” value is on record as “Dead”, the “Follow-up HTS Run mOD” value was found to be 211 mOD and the “Initial HTS Run % Run” value was 144%. Besides, the “Initial HTS Run Visual Score” value is “Dead” and the “Initial HTS Run mOD” value was found to be 158 mOD. Also, the “5 Day Visual Score V1” value under setting [1] was “Dead”. In addition, the “5 Day Visual Score V2” value under setting [2] is listed as “Dead”. Besides, for the setting “dose response”, the “5 Day Visual Score V4” value is “OK (no effect (˜1000+ progeny))” and the “5 Day Visual Score V5” value is “OK (no effect (˜1000+ progeny))”. The “5 Day Visual Score V6” value under setting [4] is on record as “OK (no effect (˜1000+ progeny))”.
